Source: ChEMBL document CHEMBL4725228, “An aza-nucleoside, fragment-like inhibitor of the DNA repair enzyme alkyladenine glycosylase (AAG)” (Bioorg Med Chem, 2020)
Activity calls are given as the source filed them. No cut-off for these calls is given here.

Target: DNA-3-methyladenine glycosylase (Homo sapiens, UniProt P29372)
Experiment: Inhibition of human AAG using HXO2/Loop01 oligonucleotide as substrate incubated for 2 hrs by colorimetric based microplate assay

Sequence of DNA-3-methyladenine glycosylase (P29372 whole entry): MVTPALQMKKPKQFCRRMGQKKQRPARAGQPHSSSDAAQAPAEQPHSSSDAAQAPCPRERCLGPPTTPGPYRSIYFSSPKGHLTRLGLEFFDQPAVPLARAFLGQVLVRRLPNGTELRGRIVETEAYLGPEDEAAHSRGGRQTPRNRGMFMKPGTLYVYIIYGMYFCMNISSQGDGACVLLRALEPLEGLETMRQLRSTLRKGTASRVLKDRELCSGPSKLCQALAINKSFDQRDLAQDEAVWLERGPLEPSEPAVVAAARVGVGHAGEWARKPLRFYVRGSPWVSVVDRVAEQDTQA

In the case of `OC[C@H]1CN(Cc2ccncc2)C[C@@H]1O`, the inhibition is reported as “Active”.
In the case of `OC[C@H]1CN(Cc2ccccn2)C[C@@H]1O`, the inhibition is reported as “Active”.
Work on `OC[C@H]1CN(Cc2c[nH]cn2)C[C@@H]1O` yielded an IC50 of 157 µM.
For `OC[C@H]1CN(Cc2ncc[nH]2)C[C@@H]1O`, the inhibition was “Active”.
With `OC[C@H]1CN(Cc2cccnc2)C[C@@H]1O` the inhibition was “Active”.
